Results: PMC4993649 (ChemMedChem, 2016)
Where two headings read alike, the source gives them in different places.

Key:
[1] = biological target: T1, purified full-length human ERβ (Homo sapiens, UniProt Q92731); conditions: for β/α ratio (of RBA values): ERβ RBA / ERα RBA
[2] = biological target: ERβ LBD/C369-biotin with SRC3 NRID-fluorescein (Homo sapiens, UniProt Q92731); assay: tr-FRET SRC3 titration into ERβ-ligand complex; conditions: E2 = 100
[3] = biological target: ERβ/C369-biotin-SaTb with SRC3 NRID-fluorescein (Homo sapiens, UniProt Q92731); assay: tr-FRET ligand titration into ERβ and SRC3; format: biochemical; conditions: read-out: Ligand coactivator recruitment potency (Ligand titration) EC50; ligand titrated into 1 nM ERβ LBD, 0.25 nM SaTb, 100 nM SRC3-fluorescein; mean ± SD
[4] = biological target: T1, purified full-length human ERβ; assay: biochemical
U87 glioma cells = assay: Cell viability assay, U87; conditions: 96 h, read-out: Effects on cell growth IC50, U87
MCF7 breast cancer cells = assay: Cell viability assay, MCF7; conditions: Homo sapiens, MCF7, 96 h, read-out: Effects on cell growth IC50, MCF7
LoVo colon cancer cells = assay: Cell viability assay, LoVo; conditions: 96 h, read-out: Effects on cell growth IC50, LoVo
HCT colon cancer cells = assay: Cell viability assay, HCT; conditions: 96 h, read-out: Effects on cell growth IC50, HCT
[5] = system: SkBr3 breast cancer cells; assay: Cell viability assay, SkBr3; conditions: Homo sapiens, SK-BR-3, 96 h, read-out: Effects on cell growth IC50, SkBr3
[6] = system: MDA-MB-231 breast cancer cells; assay: Cell viability assay, MDA-MB-231; conditions: Homo sapiens, MDA-MB-231, 96 h, read-out: Effects on cell growth IC50, MDA231

T1 sequence (Q92731 whole entry, the tested form may be a part): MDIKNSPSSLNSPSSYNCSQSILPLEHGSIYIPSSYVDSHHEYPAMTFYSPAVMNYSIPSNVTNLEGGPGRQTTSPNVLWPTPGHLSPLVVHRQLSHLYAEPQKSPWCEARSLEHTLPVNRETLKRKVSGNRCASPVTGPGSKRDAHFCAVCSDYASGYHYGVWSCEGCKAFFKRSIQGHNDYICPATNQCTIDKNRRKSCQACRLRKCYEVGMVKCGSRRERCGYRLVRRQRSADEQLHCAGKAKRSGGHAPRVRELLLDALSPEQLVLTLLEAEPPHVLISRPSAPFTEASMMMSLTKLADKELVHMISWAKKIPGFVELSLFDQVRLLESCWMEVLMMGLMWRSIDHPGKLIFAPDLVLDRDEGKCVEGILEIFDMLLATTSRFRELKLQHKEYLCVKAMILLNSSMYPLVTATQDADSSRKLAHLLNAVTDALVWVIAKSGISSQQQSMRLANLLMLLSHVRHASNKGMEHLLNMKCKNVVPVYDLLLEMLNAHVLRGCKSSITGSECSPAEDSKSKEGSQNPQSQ
Chain of ERβ LBD/C369-biotin with SRC3 NRID-fluorescein (Q9Y6Q9 627-829): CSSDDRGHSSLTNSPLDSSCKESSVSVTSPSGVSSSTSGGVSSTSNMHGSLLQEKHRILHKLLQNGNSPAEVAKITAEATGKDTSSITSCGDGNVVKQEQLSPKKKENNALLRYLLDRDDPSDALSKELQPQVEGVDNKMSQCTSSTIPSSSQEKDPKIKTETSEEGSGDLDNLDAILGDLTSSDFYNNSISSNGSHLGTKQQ
Chain of ERβ LBD/C369-biotin with SRC3 NRID-fluorescein (Q92731 256-503): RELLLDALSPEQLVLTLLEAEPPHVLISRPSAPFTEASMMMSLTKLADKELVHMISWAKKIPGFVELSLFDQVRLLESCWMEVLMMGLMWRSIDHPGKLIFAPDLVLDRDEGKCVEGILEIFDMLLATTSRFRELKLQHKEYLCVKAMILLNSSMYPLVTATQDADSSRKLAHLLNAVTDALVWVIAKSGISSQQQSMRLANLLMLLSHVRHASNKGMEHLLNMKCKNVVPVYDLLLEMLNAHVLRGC
Chain of ERβ/C369-biotin-SaTb with SRC3 NRID-fluorescein (Q9Y6Q9 627-829): as the sequence (Q9Y6Q9 627-829) above
Chain of ERβ/C369-biotin-SaTb with SRC3 NRID-fluorescein (Q92731 256-503): as the sequence (Q92731 256-503) above

| SMILES | β/α ratio (of RBA values) [1] | Efficacy % (completeness of the curves relative to E2) [2] | EC50 [3] | Ki [4] | further results |
| --- | --- | --- | --- | --- | --- |
| Cc1cc(-c2ccc(O)c3c2CC/C3=N\O)ccc1O [1e, (E)-7-hydroxy-4-(4-hydroxy-3-methylphenyl)-2,3-dihydro-1H-inden-1-one oxime] | 6.3 |  |  |  |  |
| O/N=C1\CCc2c(-c3ccccc3)ccc(O)c21 [1i, (E)-7-hydroxy-4-phenyl-2,3-dihydro-1H-inden-1-one oxime] | 89 | 72% | 0.393 ± 0.124 µM | 0.282 µM | decrease of ERβ affinity compared to 1a ([1]; from RBA values): 24 fold |
| COc1ccc(-c2ccc(O)c3c2CC/C3=N\O)cc1Cl [1h, (E)-4-(3-chloro-4-methoxyphenyl)-7-hydroxy-2,3-dihydro-1H-inden-1-one oxime] | 0.50 |  |  |  |  |
| O/N=C1\CCc2c(-c3ccc(O)cc3)ccc(O)c21 [1a, (E)-7-hydroxy-4-(4-hydroxyphenyl)-2,3-dihydro-1H-inden-1-one oxime] | 16 | 93% | 0.0142 ± 0.003 µM | 0.0117 µM | IC50 (U87 glioma cells; Homo sapiens, U-87 MG): 150.7 ± 1.2 µM; IC50 (MCF7 breast cancer cells): 70.1 ± 12.4 µM; IC50 (LoVo colon cancer cells; Homo sapiens, LoVo): 19.8 ± 2.1 µM; IC50 (HCT colon cancer cells; Homo sapiens): 61.5 ± 8.8 µM; IC50 [5]: 140 ± 11.2 µM; IC50 [6]: 42.3 ± 1.1 µM |
| O/N=C1\CCc2c(-c3ccc(O)c(Cl)c3)ccc(O)c21 [1g, (E)-4-(3-chloro-4-hydroxyphenyl)-7-hydroxy-2,3-dihydro-1H-inden-1-one oxime] | 8.0 |  |  |  |  |
| COc1ccc(-c2ccc(O)c3c2CC/C3=N\O)cc1F [1d, (E)-4-(3-fluoro-4-methoxyphenyl)-7-hydroxy-2,3-dihydro-1H-inden-1-one oxime] | 0.8 |  |  |  |  |
| COc1ccc(-c2ccc(O)c3c2CC/C3=N\O)cc1C [1f, (E)-7-hydroxy-4-(4-methoxy-3-methylphenyl)-2,3-dihydro-1H-inden-1-one oxime] | 1.0 |  |  |  |  |
| COc1ccc(-c2ccc(O)c3c2CC/C3=N\O)cc1 [1b, (E)-7-hydroxy-4-(4-methoxyphenyl)-2,3-dihydro-1H-inden-1-one oxime] | 3.0 |  |  |  |  |
| O=C1C[C@@H](c2ccc(O)cc2)Oc2cc(O)ccc21 [Liquiritigenin, reference compound] |  |  |  |  | IC50 (U87 glioma cells; human glioma, mean ± SD): 115 ± 11.7 µM; IC50 (LoVo colon cancer cells; human colon cancer, mean ± SD): 101 ± 10.2 µM; IC50 (HCT colon cancer cells; human colon cancer, mean ± SD): 75.3 ± 7.1 µM |
| O/N=C1\CCc2c(-c3ccc(O)c(F)c3)ccc(O)c21 [1c, (E)-4-(3-fluoro-4-hydroxyphenyl)-7-hydroxy-2,3-dihydro-1H-inden-1-one oxime] | 33 | 88% | 0.0195 ± 0.0026 µM | 0.0106 µM | IC50 (U87 glioma cells; Homo sapiens, U-87 MG): 32.3 ± 1.1 µM; IC50 (MCF7 breast cancer cells): 23.2 ± 1.4 µM; IC50 (LoVo colon cancer cells; Homo sapiens, LoVo): 14.5 ± 3.1 µM; IC50 (HCT colon cancer cells; Homo sapiens): 10.8 ± 1.2 µM; IC50 [5]: 130 ± 9.7 µM; IC50 [6]: 8.1 ± 1.3 µM |
